From patent US20250026769A1, “PAPD5 INHIBITORS AND METHODS OF USE THEREOF” (The Children's Medical Center Corporation, priority 2021, published 2025)
Read-outs that look alike come from different tables or passages of the source.

Columns and labels:
rPAPD5 = target: T1, rPAPD5 (Homo sapiens, UniProt Q8NDF8); experiment: differential scanning fluorimetry (DSF) binding and stabilization of rPAPD5; settings: for ΔTm at 100 µM: 100 μM test compound, read-out: ΔTm at 100 μM; for ΔTm at 1 µM: 1 μM test compound (Table 2a), read-out: ΔTm at 1 μM
T1 construct: made in house
T1 sequence (Q8NDF8 68-698 isoform Q8NDF8-5 limits assumed): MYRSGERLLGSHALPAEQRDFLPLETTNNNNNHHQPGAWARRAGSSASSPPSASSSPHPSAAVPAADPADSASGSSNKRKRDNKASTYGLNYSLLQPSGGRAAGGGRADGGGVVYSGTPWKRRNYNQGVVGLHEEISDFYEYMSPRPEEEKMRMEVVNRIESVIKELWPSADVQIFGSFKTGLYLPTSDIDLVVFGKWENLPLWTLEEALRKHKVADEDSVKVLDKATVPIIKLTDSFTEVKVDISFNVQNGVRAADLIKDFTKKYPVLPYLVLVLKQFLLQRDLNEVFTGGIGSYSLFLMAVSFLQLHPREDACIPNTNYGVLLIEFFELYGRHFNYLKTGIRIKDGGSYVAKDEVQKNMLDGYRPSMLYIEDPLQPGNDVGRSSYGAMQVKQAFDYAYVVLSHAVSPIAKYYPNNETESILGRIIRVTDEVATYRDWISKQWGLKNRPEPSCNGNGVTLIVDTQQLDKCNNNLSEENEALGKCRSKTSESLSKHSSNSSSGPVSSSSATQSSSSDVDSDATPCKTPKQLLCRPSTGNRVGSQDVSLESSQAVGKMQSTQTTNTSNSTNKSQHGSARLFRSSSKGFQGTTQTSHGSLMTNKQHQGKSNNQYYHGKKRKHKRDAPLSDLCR
Method in brief: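 Compound-induced shifts in rPAPD5 melting temperature were determined by thermal shift (DSF). Protein at […] was mixed with a non-extendable ATP analog […] in Tris-HCl (25 mM), MgCl2 (5 mM) and KCl (50 mM), with SYPRO orange at 1:5000. Curves were averages of three measurements analyzed with Thermal Shift software, and ΔTm was referenced to DMSO.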

[1] = system: hepatitis B surface antigen (HBSAg) from HepG2.2.15 cells, a hepatitis B virus-expressing cell line; experiment: HBsAg ELISA in supernatant of HepG2.2.15 cells; assay type: cell-based; settings: HepG2.2.15, 96 h
Procedure: HepG2.2.15 cells, a hepatitis B virus-expressing cell line (Sells, M. A. et al., PNAS, 1987), were plated at 50,000 cells/well in DMEM/F12 media (Gibco) with 10% fetal bovine serum (Omega Scientific) in a 24-well or 96-well plate (Corning), in 2-3 replicates for each test compound/concentration plus controls, and incubated in a humidified 5% CO2 chamber at 37° C. The next day, media was aspirated, cells were washed once with phosphate buffered saline, pH7.4 (Gibco), and 1 mL DMEM/12 media was replaced. Test compounds were added in 3-fold dilutions from up to 100 μM down to 333 pM, with vehicle (dimethylsulfoxide (Sigma)) as a control. After four days of culture in a humidified 5% CO2 chamber at 37° C., plates were spun down in a centrifuge at 300 g for 10 minutes at room temperature. Supernatant from each well was collected and either frozen at −20° C. or used directly for quantitation of hepatitis B surface antigen (HBSAg) in an enzyme-linked immunosorbent assay (ELISA). The supernatant was tested using the HBSAg ELISA kit (Abnova Cat. No KA0286) per the manufacturer's instructions. Results of replicates were averaged and nonlinear curve fitting was used to determine the half maximal inhibitory concentration (IC50) for each test compound.

[2] = system: TERC 3′ end processing in DC patient iPSCs; experiment: TERC 3′ end processing by RACE in DC patient / PARN-mutant iPSCs; assay type: cell-based, human; settings: Homo sapiens, iPSC; patient iPSCs; concentration class at which activity is seen; read-out: iPSC-based RACE activity
Procedure: (§1) Compound 266A had activity ˜2-logs higher in the in vitro RNA oligoadenylation assay compared to the parental compound cmpd. 1, approximating the activity of RG7834 (FIG. 7). […] 1. Compounds 295A and 296A had activity 2-3 logs higher in DC patient iPSCs, showing TERC maturation at 1 nM, similar to RG7834 (FIG. 6). […] Referring to Table 1D, “+” refers to activity at 1 μM, “++” refers to activity above 1 nM and below 1 μM, and “+++” refers to activity at <1 nM, “ND” refers to not determined.

[3] = system: telomere length in DC patient iPSCs; experiment: telomere length / telomere elongation in DC patient iPSCs; assay type: cell-based, human; settings: Homo sapiens, iPSC; patient iPSCs; concentration class at which activity is seen; read-out: iPSC-based Telomere length
Procedure: as §1

[4] = 10 μM test compound (Table 2a), read-out: ΔTm at 10 μM
[5] = 10 μM test compound, shift vs DMSO control, read-out: ΔTm (Table 2, starred: the compound was tested at 10 μM)

Row | Compound | ΔTm at 100 µM (rPAPD5; shift vs DMSO control) [°C] | IC50 [1] [µM] | minimal effective concentration [2] [µM] | ΔTm at 1 µM (rPAPD5) [°C] | ΔTm at 10 µM (rPAPD5; [4]) [°C] | ΔTm at 10 µM (rPAPD5; [5]) [°C] | minimal effective concentration [3] [µM]
1 | O=C(O)c1ccccc1Nc1c(-c2ncco2)cnc2ccc(Cl)cc12 [Compound 129A, 2-[(6-chloro-3-oxazol-2-yl-4-quinolyl)amino]benzoic acid] | > 5 | 4.6 |  |  |  |  | 
2 | O=C(O)c1ccccc1Nc1c(-c2ncco2)cnc2ccc(Br)cc12 [Compound 130A] | > 5 | 8.89 |  |  |  |  | 
3 | O=C(O)c1ccccc1Nc1c(NC2CCC(F)(F)CC2)cnc2ccc(Cl)cc12 [Compound 185A, 2-[[6-chloro-3-[(4,4-difluorocyclohexyl)amino]-4-quinolyl]amino]benzoic acid] | > 5 | 2.19 |  |  |  |  | 
4 | O=C(O)c1ccccc1Nc1c(C2CCOCC2)cnc2ccc(Cl)cc12 [Compound 204A, 2-[(6-chloro-3-tetrahydropyran-4-yl-4-quinolyl)amino]benzoic acid] | > 5 | 3.39 |  |  |  |  | 
5 | O=C(O)c1ccccc1Nc1c(C2=CCOCC2)cnc2ccc(Cl)cc12 [Compound 204A-INT, 2-[[6-chloro-3-(3,6-dihydro-2H-pyran-4-yl)-4-quinolyl]amino]benzoic acid] | > 5 | 2.69 |  |  |  |  | 
6 | O=C(O)c1ccccc1Nc1c(C2=CCC(F)(F)CC2)cnc2ccc(Cl)cc12 [Compound 205A-INT, 2-[[6-chloro-3-(4,4-difluorocyclohexen-1-yl)-4-quinolyl]amino]benzoic acid] | > 5 | 1.3 |  |  |  |  | 
7 | O=C(O)c1ccccc1Nc1c(S(=O)(=O)Nc2nn[nH]n2)cnc2ccc(Cl)cc12 [Compound 226A, 2-[[6-chloro-3-(2H-tetrazol-5-ylsulfamoyl)-4-quinolyl]amino]benzoic acid] | > 5 | 9.46 |  |  |  |  | 
8 | O=C(O)c1ccccc1Nc1c(S(=O)(=O)N2CCOCC2)cnc2ccc(F)cc12 [Compound 233A, 2-[(6-fluoro-3-morpholinosulfonyl-4-quinolyl)amino]benzoic acid] | > 5 | 29.1 |  |  |  |  | 
9 | O=C(O)c1cc(F)ccc1Nc1c(S(=O)(=O)N2CCOCC2)cnc2ccc(Cl)cc12 [Compound 267A, 2-[(6-chloro-3-morpholinosulfonyl-4-quinolyl)amino]-5-fluoro-benzoic acid] | > 5 | 4.84 |  |  |  |  | 
10 | Cc1ccc(Nc2c(S(=O)(=O)N3CCOCC3)cnc3ccc(Cl)cc23)c(C(=O)O)c1 [Compound 269A, 2-[(6-chloro-3-morpholinosulfonyl-4-quinolyl)amino]-5-methyl-benzoic acid] | > 5 | 1.68 |  |  |  |  | 
11 | COc1ccc(Nc2c(S(=O)(=O)N3CCOCC3)cnc3ccc(Cl)cc23)c(C(=O)O)c1 [Compound 270A, 2-[(6-chloro-3-morpholinosulfonyl-4-quinolyl)amino]-5-methoxy-benzoic acid] | > 5 | 4.98 |  |  |  |  | 
12 | O=C(O)c1ccccc1Nc1c(C2CCSCC2)cnc2ccc(Cl)cc12 [Compound 298A, 2-[(6-chloro-3-tetrahydrothiopyran-4-yl-4-quinolyl)amino]benzoic acid] | > 5 | 1.75 |  |  |  |  | 
13 | Cc1ccc(Nc2c(-c3ncco3)cnc3ccc(Cl)cc23)c(C(=O)O)c1 [Compound 301A, 2-[(6-chloro-3-oxazol-2-yl-4-quinolyl)amino]-5-methyl-benzoic acid] | > 5 | 0.942 |  |  |  |  | 
14 | O=C(O)c1cc(F)ccc1Nc1c(C2CCOCC2)cnc2ccc(Cl)cc12 [Compound 303A, 2-[(6-chloro-3-tetrahydropyran-4-yl-4-quinolyl)amino]-5-fluoro-benzoic acid] | > 5 | 0.229 |  |  |  |  | 
15 | Cc1ccc(Nc2c(C3CCOCC3)cnc3ccc(Cl)cc23)c(C(=O)O)c1 [Compound 305A, 2-[(6-chloro-3-tetrahydropyran-4-yl-4-quinolyl)amino]-5-methyl-benzoic acid] | > 5 | 0.066 |  |  |  |  | 
16 | Cc1ccc(Nc2c(C3=CCOCC3)cnc3ccc(Cl)cc23)c(C(=O)O)c1 [Compound 306A, 2-[[6-chloro-3-(3,6-dihydro-2H-pyran-4-yl)-4-quinolyl]amino]-5-methyl-benzoic acid] | > 5 | 1.05 |  |  |  |  | 
17 | COc1ccc(Nc2c(C3CCOCC3)cnc3ccc(Cl)cc23)c(C(=O)O)c1 [Compound 307A, 2-[(6-chloro-3-tetrahydropyran-4-yl-4-quinolyl)amino]-5-methoxy-benzoic acid] | > 5 | 1.32 |  |  |  |  | 
18 | O=C(O)c1cc(Cl)ccc1Nc1c(C2CCSCC2)cnc2ccc(Cl)cc12 [Compound 341A, 5-chloro-2-[(6-chloro-3-tetrahydrothiopyran-4-yl-4-quinolyl)amino]benzoic acid] |  | 0.084 | 0.001 to 1 | > 5 | > 5 | > 5 | 
19 | O=C(O)c1cc(Cl)ccc1Nc1c(N2CCSCC2)cnc2ccc(Cl)cc12 [Compound 346A, 5-chloro-2-[(6-chloro-3-thiomorpholino-4-quinolyl)amino]benzoic acid] | > 5 | 0.088 | 0.001 to 1 | 1 to 5 | > 5 |  | 
20 | O=C(O)c1cc(Cl)ccc1Nc1c(-c2cn[nH]c2)cnc2ccc(Cl)cc12 [Compound 354A, 5-chloro-2-[[6-chloro-3-(1H-pyrazol-4-yl)-4-quinolyl]amino]benzoic acid] |  | 3.34 | 1 | 1 to 5 | > 5 | > 5 | 
21 | CN1CC=C(c2cnc3ccc(Cl)cc3c2Nc2ccc(Cl)cc2C(=O)O)CC1 [Compound 367A, 5-chloro-2-[[6-chloro-3-(1-methyl-3,6-dihydro-2H-pyridin-4-yl)-4-quinolyl]amino]benzoic acid] | > 5 | 0.902 | 1 | > 5 | > 5 |  | 
22 | O=C(O)c1cc(Cl)ccc1Nc1c(N2CCC(=NO)CC2)cnc2ccc(Cl)cc12 [Compound 376A, 5-chloro-2-[[6-chloro-3-(4-hydroxyimino-1-piperidyl)-4-quinolyl]amino]benzoic acid] | > 5 | 0.101 | 1 | > 5 | > 5 |  | 
23 | O=C1CCN(c2cnc3ccc(Cl)cc3c2Nc2ccc(Cl)cc2C(=O)O)CC1 [Compound 395A, 5-chloro-2-[[6-chloro-3-(4-oxo-1-piperidyl)-4-quinolyl]amino]benzoic acid] | > 5 |  | 1 | > 5 | > 5 |  | < 0.001
24 | O=C(O)c1cc(Cl)c(F)cc1Nc1c(S(=O)(=O)N2CCSCC2)cnc2ccc(Cl)cc12 [Compound 425A, 5-chloro-2-[(6-chloro-3-thiomorpholinosulfonyl-4-quinolyl)amino]-4-fluoro-benzoic acid] | > 5 |  | 0.001 to 1 | > 5 | > 5 |  | 
25 | Cc1cc(Nc2c(S(=O)(=O)N3CCSCC3)cnc3ccc(Cl)cc23)c(C(=O)O)cc1Cl [Compound 426A, 5-chloro-2-[(6-chloro-3-thiomorpholinosulfonyl-4-quinolyl)amino]-4-methyl-benzoic acid] |  |  | 1 | 1 to 5 | > 5 | > 5 | 
26 | O=C(O)c1cc(Cl)cc(F)c1Nc1c(S(=O)(=O)N2CCSCC2)cnc2ccc(Cl)cc12 [Compound 427A, 5-chloro-2-[(6-chloro-3-thiomorpholinosulfonyl-4-quinolyl)amino]-3-fluoro-benzoic acid] | > 5 |  | 0.001 to 1 | > 5 | > 5 |  | 
27 | O=C(O)c1cc(Cl)ccc1Nc1c(N2CCC(Cl)(Cl)CC2)cnc2ccc(Cl)cc12 [Compound 430A, 5-chloro-2-[[6-chloro-3-(4,4-dichloro-1-piperidyl)-4-quinolyl]amino]benzoic acid] |  |  | < 0.001 | > 5 | > 5 | > 5 | 
